Reference: PubChem BioAssay (NCI)
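In this assay, cells in 96-well plates receive the compound at five concentrations for 48 hours. Endpoints are linearly interpolated between the surrounding concentrations. The concentration for full growth arrest is given as TGI.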

Tests used:
Test in all cases: DTP human tumour cell line panel, 48 h
786-0 renal = system: 786-0 renal
A498 renal = system: A498 renal
A549 NSCLC = system: A549 NSCLC
ACHN renal = system: ACHN renal
CAKI-1 renal = system: CAKI-1 renal
DMS 114 small cell lung = system: DMS 114 small cell lung
DMS 273 small cell lung = system: DMS 273 small cell lung
EKVX NSCLC = system: EKVX NSCLC
HCC-2998 colon = system: HCC-2998 colon
HCT-116 colon = system: HCT-116 colon
HCT-15 colon = system: HCT-15 colon
HL-60(TB) leukemia = system: HL-60(TB) leukemia
HOP-62 NSCLC = system: HOP-62 NSCLC
HT29 colon = system: HT29 colon
IGROV1 ovarian = system: IGROV1 ovarian
K-562 leukemia = system: K-562 leukemia
KM12 colon = system: KM12 colon
KM20L2 colon = system: KM20L2 colon
LOX IMVI melanoma = system: LOX IMVI melanoma
LXFL 529 NSCLC = system: LXFL 529 NSCLC
M14 melanoma = system: M14 melanoma
M19-MEL melanoma = system: M19-MEL melanoma
MALME-3M melanoma = system: MALME-3M melanoma
MOLT-4 leukemia = system: MOLT-4 leukemia
NCI-H226 lung = system: NCI-H226 lung
NCI-H460 lung = system: NCI-H460 lung
NCI-H522 lung = system: NCI-H522 lung
OVCAR-3 ovarian = system: OVCAR-3 ovarian
OVCAR-4 ovarian = system: OVCAR-4 ovarian
OVCAR-5 ovarian = system: OVCAR-5 ovarian
OVCAR-8 ovarian = system: OVCAR-8 ovarian
RPMI-8226 leukemia = system: RPMI-8226 leukemia
SF-268 CNS = system: SF-268 CNS
SF-295 CNS = system: SF-295 CNS
SF-539 CNS = system: SF-539 CNS
SK-MEL-2 melanoma = system: SK-MEL-2 melanoma
SK-MEL-28 melanoma = system: SK-MEL-28 melanoma
SK-MEL-5 melanoma = system: SK-MEL-5 melanoma
SK-OV-3 ovarian = system: SK-OV-3 ovarian
SN12C renal = system: SN12C renal
SNB-19 CNS = system: SNB-19 CNS
SNB-75 CNS = system: SNB-75 CNS
SR leukemia = system: SR leukemia
SW-620 colon = system: SW-620 colon
U251 CNS = system: U251 CNS
UACC-257 melanoma = system: UACC-257 melanoma
UACC-62 melanoma = system: UACC-62 melanoma
UO-31 renal = system: UO-31 renal
XF 498 CNS = system: XF 498 CNS
CCRF-CEM leukemia = system: CCRF-CEM leukemia
COLO 205 colon = system: COLO 205 colon
HOP-92 NSCLC = system: HOP-92 NSCLC
NCI-H23 lung = system: NCI-H23 lung
SNB-78 CNS = system: SNB-78 CNS
TK-10 renal = system: TK-10 renal

**Q.** How did the TGI (786-0 renal) turn out when N#CCCN(CCC#N)c1ccc(/C=C2\N=C(c3cc([N+](=O)[O-])ccc3Cl)OC2=O)cc1 was run?
**A.** > 100 µM

**Q.** What about the TGI (A498 renal) of the same compound?
**A.** > 100 µM

**Q.** What about the TGI (A549 NSCLC) of the same compound?
**A.** > 100 µM

**Q.** And the TGI (ACHN renal)?
**A.** > 100 µM

**Q.** What about the TGI (CAKI-1 renal) of the same compound?
**A.** > 100 µM

**Q.** And the TGI (DMS 114 small cell lung)?
**A.** 47.9 µM

**Q.** What about the TGI (DMS 273 small cell lung) of the same compound?
**A.** > 100 µM

**Q.** And the TGI (EKVX NSCLC)?
**A.** > 100 µM

**Q.** What about the TGI (HCC-2998 colon) of the same compound?
**A.** 52.6 µM

**Q.** What about the TGI (HCT-116 colon) of the same compound?
**A.** > 100 µM

**Q.** What about the TGI (HCT-15 colon) of the same compound?
**A.** > 100 µM

**Q.** And the TGI (HL-60(TB) leukemia)?
**A.** 67.3 µM

**Q.** And the TGI (HOP-62 NSCLC)?
**A.** 95.7 µM

**Q.** And the TGI (HT29 colon)?
**A.** > 100 µM

**Q.** And the TGI (IGROV1 ovarian)?
**A.** > 100 µM

**Q.** What about the TGI (K-562 leukemia) of the same compound?
**A.** 40.7 µM

**Q.** What about the TGI (KM12 colon) of the same compound?
**A.** 28.2 µM

**Q.** And the TGI (KM20L2 colon)?
**A.** > 100 µM

**Q.** And the TGI (LOX IMVI melanoma)?
**A.** 46.5 µM

**Q.** What about the TGI (LXFL 529 NSCLC) of the same compound?
**A.** 49.3 µM

**Q.** What about the TGI (M14 melanoma) of the same compound?
**A.** > 100 µM

**Q.** And the TGI (M19-MEL melanoma)?
**A.** 45 µM

**Q.** And the TGI (MALME-3M melanoma)?
**A.** > 100 µM

**Q.** What about the TGI (MOLT-4 leukemia) of the same compound?
**A.** 57.7 µM

**Q.** And the TGI (NCI-H226 lung)?
**A.** 44 µM

**Q.** What about the TGI (NCI-H460 lung) of the same compound?
**A.** > 100 µM

**Q.** And the TGI (NCI-H522 lung)?
**A.** 27.6 µM

**Q.** And the TGI (OVCAR-3 ovarian)?
**A.** 70.7 µM

**Q.** And the TGI (OVCAR-4 ovarian)?
**A.** 78.6 µM

**Q.** And the TGI (OVCAR-5 ovarian)?
**A.** > 100 µM

**Q.** What about the TGI (OVCAR-8 ovarian) of the same compound?
**A.** 37.7 µM

**Q.** What about the TGI (RPMI-8226 leukemia) of the same compound?
**A.** > 100 µM

**Q.** What about the TGI (SF-268 CNS) of the same compound?
**A.** > 100 µM

**Q.** What about the TGI (SF-295 CNS) of the same compound?
**A.** > 100 µM

**Q.** What about the TGI (SF-539 CNS) of the same compound?
**A.** > 100 µM

**Q.** What about the TGI (SK-MEL-2 melanoma) of the same compound?
**A.** 38.1 µM

**Q.** And the TGI (SK-MEL-28 melanoma)?
**A.** > 100 µM

**Q.** What about the TGI (SK-MEL-5 melanoma) of the same compound?
**A.** 33.4 µM

**Q.** And the TGI (SK-OV-3 ovarian)?
**A.** > 100 µM

**Q.** What about the TGI (SN12C renal) of the same compound?
**A.** 37.8 µM

**Q.** And the TGI (SNB-19 CNS)?
**A.** > 100 µM

**Q.** What about the TGI (SNB-75 CNS) of the same compound?
**A.** > 100 µM

**Q.** What about the TGI (SR leukemia) of the same compound?
**A.** 56.7 µM

**Q.** And the TGI (SW-620 colon)?
**A.** > 100 µM

**Q.** What about the TGI (U251 CNS) of the same compound?
**A.** 32.1 µM

**Q.** And the TGI (UACC-257 melanoma)?
**A.** 44.1 µM

**Q.** What about the TGI (UACC-62 melanoma) of the same compound?
**A.** > 100 µM

**Q.** And the TGI (UO-31 renal)?
**A.** > 100 µM

**Q.** And the TGI (XF 498 CNS)?
**A.** 86.2 µM

**Q.** With CC(=O)NNc1nc(C)c(C(=O)NNC(=O)C(=O)Nc2ccc(Cl)cc2)s1 as the compound, how does the TGI (786-0 renal) read?
**A.** > 100 µM

**Q.** What about the TGI (A549 NSCLC) of the same compound?
**A.** > 100 µM

**Q.** What about the TGI (ACHN renal) of the same compound?
**A.** > 100 µM

**Q.** What about the TGI (CCRF-CEM leukemia) of the same compound?
**A.** > 100 µM

**Q.** And the TGI (COLO 205 colon)?
**A.** > 100 µM

**Q.** What about the TGI (EKVX NSCLC) of the same compound?
**A.** > 100 µM

**Q.** What about the TGI (HCC-2998 colon) of the same compound?
**A.** > 100 µM

**Q.** What about the TGI (HCT-116 colon) of the same compound?
**A.** > 100 µM

**Q.** And the TGI (HCT-15 colon)?
**A.** > 100 µM

**Q.** And the TGI (HL-60(TB) leukemia)?
**A.** > 100 µM

**Q.** And the TGI (HOP-62 NSCLC)?
**A.** > 100 µM

**Q.** What about the TGI (HOP-92 NSCLC) of the same compound?
**A.** > 100 µM

**Q.** And the TGI (HT29 colon)?
**A.** > 100 µM

**Q.** And the TGI (IGROV1 ovarian)?
**A.** > 100 µM

**Q.** And the TGI (K-562 leukemia)?
**A.** > 100 µM

**Q.** And the TGI (KM12 colon)?
**A.** > 100 µM

**Q.** What about the TGI (KM20L2 colon) of the same compound?
**A.** > 100 µM

**Q.** And the TGI (LOX IMVI melanoma)?
**A.** > 100 µM

**Q.** And the TGI (LXFL 529 NSCLC)?
**A.** > 100 µM

**Q.** What about the TGI (M14 melanoma) of the same compound?
**A.** > 100 µM

**Q.** And the TGI (M19-MEL melanoma)?
**A.** > 100 µM

**Q.** What about the TGI (MALME-3M melanoma) of the same compound?
**A.** > 100 µM

**Q.** And the TGI (MOLT-4 leukemia)?
**A.** > 100 µM

**Q.** What about the TGI (NCI-H226 lung) of the same compound?
**A.** > 100 µM

**Q.** And the TGI (NCI-H23 lung)?
**A.** > 100 µM

**Q.** What about the TGI (NCI-H460 lung) of the same compound?
**A.** > 100 µM

**Q.** And the TGI (NCI-H522 lung)?
**A.** > 100 µM

**Q.** And the TGI (OVCAR-3 ovarian)?
**A.** > 100 µM

**Q.** What about the TGI (OVCAR-4 ovarian) of the same compound?
**A.** > 100 µM

**Q.** And the TGI (OVCAR-5 ovarian)?
**A.** > 100 µM

**Q.** What about the TGI (OVCAR-8 ovarian) of the same compound?
**A.** > 100 µM

**Q.** And the TGI (RPMI-8226 leukemia)?
**A.** > 100 µM

**Q.** What about the TGI (SF-268 CNS) of the same compound?
**A.** > 100 µM

**Q.** And the TGI (SF-295 CNS)?
**A.** > 100 µM

**Q.** And the TGI (SF-539 CNS)?
**A.** > 100 µM

**Q.** What about the TGI (SK-MEL-2 melanoma) of the same compound?
**A.** > 100 µM

**Q.** And the TGI (SK-MEL-28 melanoma)?
**A.** > 100 µM

**Q.** What about the TGI (SK-MEL-5 melanoma) of the same compound?
**A.** > 100 µM

**Q.** What about the TGI (SK-OV-3 ovarian) of the same compound?
**A.** > 100 µM

**Q.** What about the TGI (SN12C renal) of the same compound?
**A.** > 100 µM

**Q.** What about the TGI (SNB-19 CNS) of the same compound?
**A.** > 100 µM

**Q.** And the TGI (SNB-78 CNS)?
**A.** > 100 µM

**Q.** What about the TGI (SR leukemia) of the same compound?
**A.** > 100 µM

**Q.** And the TGI (SW-620 colon)?
**A.** > 100 µM

**Q.** And the TGI (TK-10 renal)?
**A.** > 100 µM

**Q.** What about the TGI (U251 CNS) of the same compound?
**A.** > 100 µM

**Q.** What about the TGI (UACC-257 melanoma) of the same compound?
**A.** > 100 µM

**Q.** What about the TGI (UACC-62 melanoma) of the same compound?
**A.** > 100 µM

**Q.** And the TGI (UO-31 renal)?
**A.** > 100 µM

**Q.** And the TGI (XF 498 CNS)?
**A.** > 100 µM
